Measurements as given in paper PMC7034112, “Bioorganometallic derivatives of 4-hydrazino-benzenesulphonamide as carbonic anhydrase inhibitors: synthesis, characterisation and biological evaluation” (Journal of Enzyme Inhibition and Medicinal Chemistry, 2020).

Tests used:
Test in all cases: stopped-flow CO2 hydrase assay
Assay type in all cases: biochemical
Settings in all cases: CO2 […], […] Hepes pH […] Na2SO4, […] h preincubation at room temperature
hCA XII = molecular target: T1, hCA XII (Homo sapiens, UniProt O43570)
T1 construct: gene CA12; recombinant, obtained in-house
From the text: stopped-flow CO2 hydrase assay on hCA XII

hCA I = molecular target: T2, hCA I (Homo sapiens, UniProt P00915)
T2 construct: gene CA1; recombinant, obtained in-house
From the text: stopped-flow CO2 hydrase assay on hCA I

hCA IX = molecular target: T3, hCA IX (Homo sapiens, UniProt Q16790)
T3 construct: gene CA9; recombinant, obtained in-house
From the text: stopped-flow CO2 hydrase assay on hCA IX

hCA II = molecular target: T4, hCA II (Homo sapiens, UniProt P00918)
T4 construct: gene CA2; recombinant, obtained in-house
From the text: stopped-flow CO2 hydrase assay on hCA II

T2 sequence (P00915 2-261): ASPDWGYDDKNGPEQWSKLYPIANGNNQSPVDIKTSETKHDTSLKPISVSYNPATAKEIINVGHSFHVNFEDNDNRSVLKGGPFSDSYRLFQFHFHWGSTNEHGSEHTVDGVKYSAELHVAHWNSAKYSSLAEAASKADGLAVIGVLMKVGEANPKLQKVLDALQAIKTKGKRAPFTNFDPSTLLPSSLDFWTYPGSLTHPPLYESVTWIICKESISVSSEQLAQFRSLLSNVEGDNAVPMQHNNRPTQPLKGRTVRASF
T1 sequence (O43570 25-354): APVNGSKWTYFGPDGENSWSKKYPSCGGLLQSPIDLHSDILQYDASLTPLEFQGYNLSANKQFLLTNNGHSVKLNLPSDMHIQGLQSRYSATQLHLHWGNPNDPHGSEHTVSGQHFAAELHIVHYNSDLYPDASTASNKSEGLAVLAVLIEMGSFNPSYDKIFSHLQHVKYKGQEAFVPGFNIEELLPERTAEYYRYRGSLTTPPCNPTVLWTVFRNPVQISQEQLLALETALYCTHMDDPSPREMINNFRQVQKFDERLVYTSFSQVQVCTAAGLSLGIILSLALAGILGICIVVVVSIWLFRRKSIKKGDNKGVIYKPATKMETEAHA

Row | Substance | Ki (hCA XII) | Ki (hCA I) | Ki (hCA IX) | Ki (hCA II)
1 | [{(η^5-C5H4)-C(CH3)=N–N(H)-C6H4-4-SO2NH2}]re(CO)3 [1b] | 3.8 nM | 3.7 nM | 25 nM | 9.7 nM
2 | [{(η^5-C5H4)-CH=N–N(H)-C6H4-4-SO2NH2}]FeCp [3a] | 4.9 nM | 13.2 nM | 49.9 nM | 1.7 nM
3 | [{(η^5-C5H4)-CH=N–N(H)-C6H4-4-SO2NH2}]Mn(CO)3 [2a] | 3.1 nM | 5.9 nM | 2.1 nM | 8.2 nM
4 | [{(η^5-C5H4)-CH=N–N(H)-C6H4-4-SO2NH2}]re(CO)3 [1a] | 24.4 nM | 7.5 nM | 580 nM | 22.4 nM

The remaining substances from weak to strong by Ki (hCA XII), led by results:

Row | Ki (hCA XII) | Ki (hCA I) | Ki (hCA IX) | Ki (hCA II) | Substance
5 | 3.3 nM | 269 nM | 221 nM | 11.2 nM | [{(η^5-C5H4)-C(CH3)=N–N(H)-C6H4-4-SO2NH2}]Mn(CO)3 [2b]
6 | 1.9 nM | 3.6 nM | 41.9 nM | 9.3 nM | [{(η^5-C5H4)-C(CH3)=N-N(H)-C6H4-4-SO2NH2}]FeCp [3b]
